In series [1] the target is T1, recombinant human 5-HT5A receptor (Homo sapiens, UniProt P47898).
T1 construct: expressed in transfected cells; host or cells: HEK-EBNA (Human Embryonic Kidney-EBNA) cells, transient transfection; membranes
The series can be described thus: [3H]LSD radioligand binding assay, membranes of HEK-EBNA cells transiently expressing the receptor. The following applies: [3H]LSD approx. 1 nM, 120 min room temperature, Ki from IC50 by Cheng-Prussoff equation, read-out: Ki (affinity towards the human 5-HT5A receptor). How it is done:
A [^3H] LSD radioligand binding assay was used to determine the affinity of the compounds for the recombinant human 5-HT5A receptor, in membranes from transiently (cDNA) expressed 5-HT5A receptors in Human Embryonic Kidney-EBNA (HEK-EBNA) cells.
Assay buffer consisted of Tris (50 mM) buffer containing 1 mM EGTA, 10 mM MgCl2 (pH 7.4) and 10 μM pargyline. The binding assay was carried out in 96-well-plates in the presence of [^3H]LSD (approximately 1 nM), approximately 2 μg/well of membrane protein, and 0.5 mg of Ysi-poly-1-lysine SPA beads in a final volume of 200 μl of buffer. Non-specific binding was defined using methiothepin 2 μM. Compounds were tested at 10 concentrations. All assays were conducted in duplicate and repeated at least two times. Assay plates were incubated for 120 min at room temperature before centrifugation. Bound ligand was determined using a Packard Topcount scintillation counter. IC50 values were calculated using a non-linear curve fitting program and Ki values calculated using the Cheng-Prussoff equation.

T1 sequence (P47898 whole entry): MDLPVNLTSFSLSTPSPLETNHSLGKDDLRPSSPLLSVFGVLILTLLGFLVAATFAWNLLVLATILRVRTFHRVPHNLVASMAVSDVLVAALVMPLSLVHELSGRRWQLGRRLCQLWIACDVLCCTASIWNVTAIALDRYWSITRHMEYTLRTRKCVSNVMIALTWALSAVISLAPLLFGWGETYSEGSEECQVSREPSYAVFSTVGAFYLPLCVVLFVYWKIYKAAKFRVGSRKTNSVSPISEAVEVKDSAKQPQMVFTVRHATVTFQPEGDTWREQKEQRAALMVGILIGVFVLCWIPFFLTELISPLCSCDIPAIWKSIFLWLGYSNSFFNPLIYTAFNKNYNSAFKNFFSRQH

Usually melting point stands for the temperature, or range, at which the solid turns liquid. The compound `COc1ccccc1CNc1ccc2cc(Nc3cccc(C(F)(F)F)n3)ccc2n1` [Example 101, N2-(2-Methoxy-benzyl)-N6-(6-trifluoromethyl-pyridin-2-yl)-quinoline-2,6-diamine] displayed a melting point of 151 °C.

Consider `COc1ccccc1CNc1ccc2cc(Nc3ncc(C(F)(F)F)o3)ccc2n1` [Example 99, N2-(2-Methoxy-benzyl)-N6-(5-trifluoromethyl-oxazol-2-yl)-quinoline-2,6-diamine], for which the melting point was determined as 166 °C.

`COc1ccccc1CNC(=O)c1ccc2nc(NCc3ccccc3OC)ccc2c1` [Example 76, 2-(2-Methoxy-benzylamino)-quinoline-6-carboxylic acid 2-methoxy-benzylamide] had a melting point of 217 °C.

In turn, `COc1ccccc1CNc1ccc2cc(Nc3nnc(C)o3)ccc2n1` [Example 85, N2-(2-Methoxy-benzyl)-N6-(5-methyl-[1,3,4]oxadiazol-2-yl)-quinoline-2,6-diamine] showed a melting point of 183 °C.

As usually defined, the Ki is a dissociation constant, usually derived from enzyme kinetics or from competition with a known ligand. Take `COc1ccccc1CNc1ccc2cc(Nc3nccc(C(F)(F)F)n3)ccc2n1` [Example 94, N2-(2-Methoxy-benzyl)-N6-(4-trifluoromethyl-pyrimidin-2-yl)-quinoline-2,6-diamine]: the melting point came out at 114 °C. Further, the Ki in series [1] turned out to be 30 nM.

The compound `COc1ccccc1CNc1ccc2cc(Nc3nc(C)cc(C)n3)ccc2n1` [Example 89, N6-(4,6-Dimethyl-pyrimidin-2-yl)-N2-(2-methoxy-benzyl)-quinoline-2,6-diamine] displayed a melting point of 157.5 °C.

Regarding `COc1ccccc1CNc1ccc2cc(Nc3cc(C)on3)ccc2n1` [Example 88, N2-(2-Methoxy-benzyl)-N6-(5-methyl-isoxazol-3-yl)-quinoline-2,6-diamine], the melting point was found to be 132 °C. The Ki in series [1] amounted to 26 nM.

In turn, `COc1ccccc1CNc1ccc2cc(Nc3nnc(C(F)(F)F)o3)ccc2n1` [Example 97, N2-(2-Methoxy-benzyl)-N6-(5-trifluoromethyl-[1,3,4]oxadiazol-2-yl)-quinoline-2,6-diamine] showed a melting point of 198 °C.

`COc1ccccc1CNc1ccc2cc(Nc3nnc(C4CC4)o3)ccc2n1` [Example 96, N6-(5-Cyclopropyl-[1,3,4]oxadiazol-2-yl)-N2-(2-methoxy-benzyl)-quinoline-2,6-diamine] returned a melting point of 199 °C. In series [1], the Ki is 47 nM.

`COc1ccccc1CNc1ccc2cc(Nc3nc(C(F)(F)F)co3)ccc2n1` [Example 98, N2-(2-Methoxy-benzyl)-N6-(4-trifluoromethyl-oxazol-2-yl)-quinoline-2,6-diamine] gave a melting point of 144 °C.

In turn, `COc1ccccc1CNc1ccc2cc(Nc3ncccn3)ccc2n1` [Example 84, N2-(2-Methoxy-benzyl)-N6-pyrimidin-2-yl-quinoline-2,6-diamine] registered a melting point of 175 °C.

`COc1ccccc1CNc1ccc2cc(Nc3cccc(C)n3)ccc2n1` [Example 93, N2-(2-Methoxy-benzyl)-N6-(6-methyl-pyridin-2-yl)-quinoline-2,6-diamine] yielded a melting point of 134 °C.

On to `COc1ccccc1CNc1ccc2cc(Nc3ccccn3)ccc2n1` [Example 92, N2-(2-Methoxy-benzyl)-N6-pyridin-2-yl-quinoline-2,6-diamine], for which the melting point came out at 134 °C. The Ki in series [1] came out at 34 nM.

`COc1ccccc1CNc1ccc2cc(Nc3nc4cc(C)ccc4o3)ccc2n1` [Example 102, N2-(2-Methoxy-benzyl)-N6-(5-methyl-benzooxazol-2-yl)-quinoline-2,6-diamine]: the melting point came out at 220 °C.

For the compound `COc1ccccc1CNc1ccc2cc(Nc3nnn(C(C)(C)C)n3)ccc2n1` [Example 95, N6-(2-tert-Butyl-2H-tetrazol-5-yl)-N2-(2-methoxy-benzyl)-quinoline-2,6-diamine], the melting point was 156 °C.

In the case of `CCn1nnc(Nc2ccc3nc(NCc4ccccc4OC)ccc3c2)n1` [Example 87, N6-(2-Ethyl-2H-tetrazol-5-yl)-N2-(2-methoxy-benzyl)-quinoline-2,6-diamine], the melting point turned out to be 190 °C. Further, the Ki in series [1] turned out to be 44 nM.

`COc1ccccc1CNc1ccc2cc(Nc3ncco3)ccc2n1` [Example 100, N2-(2-Methoxy-benzyl)-N6-oxazol-2-yl-quinoline-2,6-diamine] showed a melting point of 205 °C.

In turn, `COc1ccccc1CNc1ccc2cc(Nc3ncccc3C)ccc2n1` [Example 91, N2-(2-Methoxy-benzyl)-N6-(3-methyl-pyridin-2-yl)-quinoline-2,6-diamine] displayed a melting point of 163 °C.

Consider `COc1ccccc1CNc1ccc2cc(Nc3nccc(C)n3)ccc2n1` [Example 90, N2-(2-Methoxy-benzyl)-N6-(4-methyl-pyrimidin-2-yl)-quinoline-2,6-diamine], for which the melting point came out at 125 °C. In addition, the Ki in series [1] worked out at 33 nM.

In the case of `COc1ccccc1CNc1ccc2cc(Nc3nc(C)no3)ccc2n1` [Example 86, N2-(2-Methoxy-benzyl)-N6-(3-methyl-[1,2,4]oxadiazol-5-yl)-quinoline-2,6-diamine], the melting point worked out at 175 °C.

Take `COc1cc(F)ccc1CNc1cc(N)c2cc(NCc3ccccc3)ccc2n1` [Example 44, N6-Benzyl-N2-(4-fluoro-2-methoxy-benzyl)-quinoline-2,4,6-triamine]: the Ki in series [1] worked out at 40 nM.

Source of the values: patent US8399674B2, “Quinolines” (Hoffman-La Roche Inc., priority 2007, dated 2013).
